In patent US9487470B2, “4-((substituted phenyl) difluoromethyl) phenoxy carboxylic acid derivative, and preparation method and uses thereof” (Zhejiang Hisun Pharmaceutical Co., Ltd., priority 2012, dated 2016):

Key:
[1] = tested on: hyperlipoidemia model of Goldenhamsters (blood plasma TC, TG, HDL-C, LDL-C); assay: Pharmacological test group 1: effects on blood lipid levels of Goldenhamsters in a hyperlipoidemia model; type: in vivo; settings: for HDL-C, after administration / LDL-C, after administration / TC, after administration / TG, after administration: 40 mg/kg intragastric, 1 week, high-lipid feed continued, blood plasma, x±s, asterisks = P vs before administration
Description: Animals: 134 male Goldenhamsters, aged 8 weeks, body weight 80-100 g, provided by Vital River Laboratories, Beijing. […] Kits: The kits for total cholesterol (TC), triglyceride (TG), and high density lipoprotein cholesterol (HDL-C) were provided by SYSMEX, and the kits for low density lipoprotein cholesterol (LDL-C) were provided by Shanghai Kehua Bio-engineering Co., Ltd. Apparatus: SYSMEX Automatic Biochemistry Analyzer, Bechman centrifuge, Setoris balance. The animals were acclimatized and fed for 1 week, ad lib, light cycle was 10 h/14 h, and then feeds with high lipid content were fed to the animals (formulation: 0.3% cholesterol, 20% palm oil, and 79.7% basic feeds). The animals were fed for 10 days, and were fasted at 4:00 pm on the 10th day (fasted for 16 h). On the 11th day, the animals were anaesthetized with ethyl ether, weighted, and then 0.5 ml blood was collected from vena orbitalis posterior. The blood was anticoagulated with heparin, and was centrifugated at 5000 rpm for 10 min. The blood plasma was taken, and the levels of TC, TG, HDL-C, and LDL-C in blood plasma were determined using automatic biochemistry analyzer. The animals were acclimatized and fed for 1 week, ad lib, light cycle was 10 h/14 h, and then feeds with high lipid content were fed to the animals (formulation: 0.3% cholesterol, 20% palm oil, and 79.7% basic feeds). The animals were fed for 2 weeks, and were fasted at 4:00 pm on the […] (fasted for 16 h). On the 22nd day, the animals were anaesthetized with ethyl ether, weighted, and then 0.5 ml blood was collected from vena orbitalis posterior. The blood was anticoagulated with heparin, and was centrifugated at 5000 rpm for 10 min. The blood plasma was taken, and the levels of TC, TG, HDL-C, and LDL-C in blood plasma were determined using automatic biochemistry analyzer. […] During the administration, feeds with high lipid content were continuously fed to the animals. The animals were fed for 1 week, and were fasted at 4:00 pm on the 7th day. On the 8th day, the animals were anaesthetized with ethyl ether, weighted, and then 0.5 ml blood was collected from vena orbitalis posterior. The blood was anticoagulated with heparin, and was centrifugated at 5000 rpm for 10 min. The blood plasma was taken, and the levels of TC, TG, HDL-C, and LDL-C in blood plasma were determined using automatic biochemistry analyzer. The results were represented by x±s, and t test was employed for comparing the results obtained before and after administration.

[2] = tested on: hyperlipoidemia model of Goldenhamsters (blood plasma TC, HDL-C, LDL-C); assay: Pharmacological test group 2: effects on blood lipid levels of Goldenhamsters in hyperlipoidemia model; type: in vivo; settings: for blood lipid-regulating effects (conclusion from table 3) / therapeutic effect compared with fenofibrate (conclusion from table 3) / effect on HDL-C, in comparison with the results before administration (in words) / effect on LDL-C, in comparison with the results before administration (in words) / effect on TC, in comparison with the results before administration (in words): 40 mg/kg; for HDL-C, after administration / LDL-C, after administration / TC, after administration: 40 mg/kg intragastric, 1 week, high-lipid feed continued, asterisks = P vs before administration; for HDL-C, after administration / LDL-C, after administration / TC, after administration / HDL-C, before administration / LDL-C, before administration / TC, before administration: blood plasma, x±s; for therapeutic effect compared with fenofibrate (conclusion from table 3): fenofibrate 40 mg/kg; for effect on HDL-C, in comparison with the results before administration (in words) / effect on LDL-C, in comparison with the results before administration (in words) / effect on TC, in comparison with the results before administration (in words): t test after vs before administration; for HDL-C, before administration / LDL-C, before administration / TC, before administration: baseline of the group before administration, high-lipid feed 2 weeks, 6 animals
Description: (§1) Animals: 120 male Goldenhamsters, aged 8 weeks, body weight 80-100 g, provided by Vital River Laboratories, Beijing.
Kits: The kits for total cholesterol (TC) and high density lipoprotein cholesterol (HDL-C) were provided by SYSMEX, and the kits for low density lipoprotein cholesterol (LDL-C) were provided by Shanghai Kehua Bio-engineering Co., Ltd.
(§2) Apparatus: SYSMEX Automatic Biochemistry Analyzer, Bechman centrifuge, Setoris balance.
(§3) The animals were acclimatized and fed for 1 week, ad lib, light cycle was 10 h/14 h, and then feeds with high lipid content were fed to the animals (formulation: 0.3% cholesterol, 20% palm oil, and 79.7% basic feeds). The animals were fed for 2 weeks, and were fasted at 4:00 pm on the 14th day (fasted for 16 h). On the 15th day, the animals were anaesthetized with ethyl ether, weighted, and then 0.5 ml blood was collected from vena orbitalis posterior. The blood was anticoagulated with heparin, and was centrifugated at 5000 rpm for 10 min. The blood plasma was taken, and the levels of TC, HDL-C, and LDL-C in blood plasma were determined using automatic biochemistry analyzer.
During the administration, feeds with high lipid content were continuously fed to the animals. The animals were fed for 1 week, and were fasted at 4:00 pm on the 7th day. On the 8th day, the animals were anaesthetized with ethyl ether, weighted, and then 0.5 ml blood was collected from vena orbitalis posterior. The blood was anticoagulated with heparin, and was centrifugated at 5000 rpm for 10 min. The blood plasma was taken, and the levels of TC, HDL-C, and LDL-C in blood plasma were determined using automatic biochemistry analyzer.
(§4) The results were represented by x±s, and t test was employed for comparing the results obtained before and after administration.

[3] = Solubility in water (remark on the test drugs); type: physicochemical; settings: formulated with 20% solutol
[4] = tested on: hyperlipoidemia model of Goldenhamsters (blood plasma TC, TG, HDL-C, LDL-C); assay: Pharmacodynamic test group 3: effects on blood lipid levels of Goldenhamsters in a hyperlipoidemia model; type: in vivo
Description: as §1
Kits: The kits for total cholesterol (TC), triglyceride (TG), and high density lipoprotein cholesterol (HDL-C) were provided by SYSMEX, and the kits for low density lipoprotein cholesterol (LDL-C) were provided by Shanghai Kehua Bio-engineering Co., Ltd.
as §2
as §3, with “pm of” for “pm on”, “h). At” for “h). On”, “TC, TG,” for “TC,”
During the administration, feeds with high lipid content were continuously fed to the animals. The animals were fed for 1 week, and were fasted at 4:00 pm of the 7th day. At the 8th day, the animals were anaesthetized with ethyl ether, weighted, and then 0.5 ml blood was collected from vena orbitalis posterior. The blood was anticoagulated with heparin, and was centrifugated at 5000 rpm for 10 min. The blood plasma was taken, and the levels of TC, TG, HDL-C, and LDL-C in blood plasma were determined using automatic biochemistry analyzer.
as §4

[5] = 40 mg/kg, t test after vs before administration
[6] = 40 mg/kg intragastric, 1 week, high-lipid feed continued, blood plasma, x±s, asterisks = P vs before administration
[7] = baseline of the group before administration, high-lipid feed 2 weeks, blood plasma, x±s, 6 animals

Structure (SMILES) | regulating effects on the levels of blood lipid (conclusion from table 2) ([1]; 40 mg/kg) | HDL-C, after administration [1] | LDL-C, after administration [1] | TC, after administration [1] | TG, after administration [1] | effect on LDL-C, in comparison with the results before administration (in words) [1, 5] | effect on TG, in comparison with the results before administration (in words) [1, 5] | blood lipid-regulating effects (conclusion from table 3) [2] | HDL-C, after administration [2] | LDL-C, after administration [2] | TC, after administration [2] | therapeutic effect compared with fenofibrate (conclusion from table 3) [2] | effect on HDL-C, in comparison with the results before administration (in words) [2] | effect on LDL-C, in comparison with the results before administration (in words) [2] | effect on TC, in comparison with the results before administration (in words) [2] | HDL-C, before administration [2] | LDL-C, before administration [2] | TC, before administration [2] | solubility in water [3] | also measured
CC(C)OC(=O)C(C)(C)Oc1ccc(C(F)(F)c2ccccc2Cl)cc1 [HS003-014, Isopropyl 2-(4-((2-chlorophenyl)difluoromethyl)phenoxy)-2-methylpropionate] | tend to the effects of significantly decreasing TG, TC, and LDL-C | 3.55 ± 0.4 | 0.75 ± 0.17 | 8.20 ± 0.91 | 0.92 ± 0.25 | significantly decreases | significantly decreases | excellent blood lipid-regulating effects | 1.82 ± 0.18 | 1.39 ± 0.51 | 9.51 ± 1 | outstanding therapeutic effects, and are superior to fenofibrate | increases | significantly decreases | significantly decreases | 1.57 ± 0.16 | 3.36 ± 1.19 | 13.97 ± 2.27 | insoluble | therapeutic effect compared with fenofibrate (conclusion from table 2) ([1]; 40 mg/kg, fenofibrate 40 mg/kg): outstanding therapeutical effects, and is significantly superior to fenofibrate; effect on TC, in comparison with the results before administration (in words) [1, 5]: significantly decreases
Cc1cc(OC(C)(C)C(=O)OC(C)C)ccc1C(F)(F)c1ccc(Cl)cc1 [HS003-019, Isopropyl 2-(4-((4-chlorophenyl)difluoromethyl)-3-methylphenoxy)-2-methylpropionate] |  |  |  |  |  |  |  | excellent blood lipid-regulating effects | 1.84 ± 0.21 | 1.83 ± 0.56 | 10.62 ± 1.02 | outstanding therapeutic effects, and are superior to fenofibrate |  | significantly decreases | significantly decreases | 1.67 ± 0.22 | 3.12 ± 1.47 | 13.99 ± 2.28 | insoluble | 
CC(C)OC(=O)C(C)(C)Oc1ccc(C(F)(F)c2ccc(Cl)cc2)cc1Cl [HS003-020, Isopropyl 2-(4-((4-chlorophenyl)difluoromethyl)-2-chlorophenoxy)-2-methylpropionate] | tend to the effects of significantly decreasing TG, TC, and LDL-C | 4.18 ± 0.07 | 1.0 ± 0.35 | 8.88 ± 0.44 | 1.19 ± 0.49 | significantly decreases | significantly decreases | excellent blood lipid-regulating effects | 1.84 ± 0.14 | 1.42 ± 0.39 | 10.34 ± 1.17 | outstanding therapeutic effects, and are superior to fenofibrate | significantly increases | significantly decreases | significantly decreases | 1.45 ± 0.2 | 3.94 ± 1.41 | 14.06 ± 2.17 | insoluble | effect on HDL-C, in comparison with the results before administration (in words) [1, 5]: increase
CCOC(=O)C(CC)Oc1ccc(C(F)(F)c2ccc(Cl)cc2)cc1 (stereo not drawn) [HS003-023, Ethyl 2-(4-((4-chlorophenyl)difluoromethyl)phenoxy)butyrate] |  |  |  |  |  |  |  |  |  |  |  |  |  |  |  |  |  |  | insoluble | blood lipid-regulating effects (conclusion from table 4) ([4]; 40 mg/kg): excellent blood lipid-regulating effects; HDL-C, after administration [4, 6]: 2.88 ± 0.22; LDL-C, after administration [4, 6]: 2.26 ± 0.38; TC, after administration [4, 6]: 8.49 ± 1.08; TG, after administration [4, 6]: 2.40 ± 0.35; therapeutic effect compared with fenofibrate (conclusion from table 4) ([4]; 40 mg/kg, fenofibrate 40 mg/kg): outstanding therapeutic effects, and are superior to fenofibrate; effect on LDL-C, in comparison with the results before administration (in words) [4, 5]: significantly decreases; effect on TC, in comparison with the results before administration (in words) [4, 5]: significantly decreases; effect on TG, in comparison with the results before administration (in words) [4, 5]: significantly decreases; HDL-C, before administration [4, 7]: 2.76 ± 0.28; LDL-C, before administration [4, 7]: 2.86 ± 0.63; TC, before administration [4, 7]: 12.39 ± 2.38; TG, before administration [4, 7]: 3.91 ± 1.07
